Values joined by “and” are separate entries in the source; they are usually repeats but may differ in a detail not shown here. Identical values can stand only once.
Legend:
[1] = Photophysical properties (absorption, emission, luminescence lifetime, quantum yields) in solution; assay type: physicochemical
Description: L1 ligand and L1Nd^3+ complex (Example 2) both have broad absorption bands which extend over a wavelength range having values as high as 750 nm with maxima centered at ˜615 and ˜670 nm and molar absorption coefficients up to 5·10^3 M^−1 cm^−1. Upon excitation of the low energy absorption bands located on L1 and on the L1Nd^3+ complex, it is possible to observe broadband emission signals from the chromophore ligand centered at ˜690 nm with a shoulder at ˜740 nm. The complex L1Nd^3+, when excited at a wavelength of 650 nm, produces a narrow emission band with a maximum at 1064 nm which is characteristic of the electronic structure of Nd^3+ resulting from the transition ^4F3/2→^4I11/2. […] As a result, ligand L1 and complex L1Nd^3+ both have excitation and emission wavelengths included in the domain of the biological diagnostic window (FIG. 1).
The quantitative luminescence parameters (luminescence lifetime (i) and luminescence quantum yields centered on L1-(QL) and on Nd^3+-(QNd)) determined on the L1Nd^3+ complex are summarized in Table 3.1.
Relatively short life time values T (in the nanosecond range) and low QNd quantum yields have been measured for the near-infrared emission of Nd^3+ in comparison with the highest corresponding values that have been published to date. […]
The quantum yield of the emission from the ligand is lower by a ratio of 30% for the Nd^3+ complex relative to the L1 ligand. […] It is important to point out that narrow Nd^3+ emission band positions are unaffected by microenvironmental changes, which is a major advantage over the “wavelength” indocyanine green commercial fluorophore. of similar excitation (Fernandez-Fernandez, R. Manchanda, T. Lei, D. A. Carvajal, Y. Tang, S. Z. Razza Kazmi, A. J. McGoron, Comparative study of the optical and heat generation properties of IR820 and indocyanine green, Molecular imaging, 11 (2012) 99 and S. Mordon, J. M. Devoisselle, S. Soulie-Begu, T. Desmetter, Indocyanine green: Physicochemical factors affecting its fluorescence in vivo, Microvascular Research, 55 (1998) 146-152).

[2] = Photostability in solution under continuous illumination at 630 nm; assay type: physicochemical; details: 3 h continuous illumination at 630 nm; 100 μM, HEPES pH 7.5, room temperature
Description: The photostabilities of L1 and L1Nd^3+ were studied under continuous illumination at 630 nm (FIG. 2).

NCCNc1ccc(NCCNC(=O)CN(CCN(CCN(CCN(CC(=O)O)CC(=O)O)CC(=O)O)CC(=O)O)CC(=O)O)c2c1C(=O)c1c(O)ccc(O)c1C2=O [Compound L1, 3-(2-((2-((4-((2-aminoethyl)amino)-5,8-di hydroxy-9,10-dioxo-9,10-dihydroanthracen-1-yl)aminoacid)ethyl)amino)-2-oxoethyl)-6,9,12-tris(carboxymethyl)-3,6,9,12-tétraazatétradécane-1,14-dioic]
absorption maxima ([1]; broad absorption bands extending to 750 nm, HEPES buffer): ~615 nm and ~670 nm | QL(%) (quantum yield centered on L1) ([1]; excitation at 620 nm, emission collected 640-850 nm, 100 μM, pH = 7.5, room temperature): 0,257(5) % | broadband emission from the chromophore ligand, centre ([1]; excitation of low energy absorption bands, shoulder at ~740 nm): ~690 nm | loss of initial emission intensity [2]: ~70%

From US10669288B2, “Lanthanide complexes based on triethylenetetramine-N,N,N′,N″,N′″,N′″-hexaacetic acid derivatives” (UNIVERSITE D'ORLEANS, priority 2017, dated 2020)
